Reference: patent US10392422B2, “Macrocyclic broad spectrum antibiotics” (priority 2014, dated 2019)

Key:
MRSA strain USA300 [1] = assay: Time-kill assay; assay type: cell-based, Staphylococcus aureus; conditions: 1 ug/mL imipenem plus 16 ug/mL Compound 155; initial density 1*10^7 cfu/mL; FIG. 2
Method: Time-kill experiments enable quantification of rate of bacterial growth or death in the presence of a fixed concentration of one or more antibiotics (Arhin. F., et. al., Current Protocols in Microbiology 17.1.1-17.1.22, February 2010). Time-kill experiments were performed in 96-well incubation plates using Mueller Hinton II Broth+0.002% Tween-80 as the growth media. Individual wells contained imipenem alone, Compound 155 alone, or a combination of both agents at various concentrations. MRSA strain USA300 was grown overnight at 35° C. on Mueller Hinton Agar plates, and colonies were suspended in Mueller Hinton II Broth+0.002% Tween-80 to a final density of 2*10^8 cfu/mL. To each well of the incubation plates, 5 uL of this suspension were added, resulting in an initial density of 1*10^7 cfu/mL. Plates were incubated at 35° C., and at various time points 30 ul samples were removed, mixed 1:1 with 25 mg/ml activated carbon, serially diluted in sterile phosphate buffered saline supplemented with 0.05% Tween 20, and spotted onto Mueller Hinton Agar plates to enable cfu quantification. Colonies were counted and the cfu/ml at each time point calculated by based on the dilution factor and volume spotted.

[2] = tested on: Methicillin Resistant Staphylococcus aureus strain USA 300 (NRS384); assay: MIC, broth micro-dilution technique (CLSI); assay type: cell-based; conditions: Table 1 protocol: serial 2-fold dilutions starting from 64 μg/ml; 35° C., 22 hours
Outline: (§1)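 CLSI broth microdilution in cation-adjusted Mueller Hinton broth with 0.002% v/v Tween-80. Compounds were serially 2-fold diluted over 10 concentrations from 64 μg/ml, or from 4 μg/mL in a modified protocol; inoculum at final OD600 0.0005, incubated 35° C for 22 hours.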

[3] = tested on: Escherichia coli MC4100 harboring the IMP4213; assay: MIC, broth micro-dilution technique (CLSI); assay type: cell-based; conditions: Table 1 protocol: serial 2-fold dilutions starting from 64 μg/ml; 35° C., 22 hours
Outline: as §1

MRSA strain USA300 [4] = assay: SIC determination with partner beta-lactam antibiotics; assay type: cell-based, Staphylococcus aureus
Method: Many compounds in the Examples, including Compound 155, synergize with a wide range of beta-lactam antibiotics as quantified by SIC determination, where the SIC is measured and defined in a manner identical to the MIC, […] being tested.

CCCCCCCCCCNCCC(=O)N[C@@H](CCCCN)C(=O)N(C)[C@@H]1C(=O)N[C@@H](C)C(=O)N[C@H](C(=O)N[C@@H](C)C(=O)N2CCC[C@H]2C(N)=O)Cc2ccc(O)c(c2)-c2cc1ccc2O.O=CO [Compound 155]
64 µg/mL: MIC (μg/mL) E. coli [3]
0.25 µg/mL: Compound 155 SIC (MRSA strain USA300 [4]; MRSA strain USA300, media contains partner beta-lactam Amoxicillin/Clav at 1/4x its MIC) | Compound 155 SIC (MRSA strain USA300 [4]; MRSA strain USA300, media contains partner beta-lactam Cefaclor at 1/4x its MIC) | Compound 155 SIC (MRSA strain USA300 [4]; MRSA strain USA300, media contains partner beta-lactam Cefamandole at 1/4x its MIC) | Compound 155 SIC (MRSA strain USA300 [4]; MRSA strain USA300, media contains partner beta-lactam Cefixime at 1/4x its MIC) | Compound 155 SIC (MRSA strain USA300 [4]; MRSA strain USA300, media contains partner beta-lactam Cefonicid at 1/4x its MIC) | Compound 155 SIC (MRSA strain USA300 [4]; MRSA strain USA300, media contains partner beta-lactam Cefoxitin at 1/4x its MIC) | Compound 155 SIC (MRSA strain USA300 [4]; MRSA strain USA300, media contains partner beta-lactam Cefprozil at 1/4x its MIC) | Compound 155 SIC (MRSA strain USA300 [4]; MRSA strain USA300, media contains partner beta-lactam Ceftizoxime at 1/4x its MIC) | Compound 155 SIC (MRSA strain USA300 [4]; MRSA strain USA300, media contains partner beta-lactam Ertapenem at 1/4x its MIC) | Compound 155 SIC (MRSA strain USA300 [4]; MRSA strain USA300, media contains partner beta-lactam Meropenem at 1/4x its MIC) | Compound 155 SIC (MRSA strain USA300 [4]; MRSA strain USA300, media contains partner beta-lactam Methicillin at 1/4x its MIC)
64: Fold reduction in Compound 155 MIC (MRSA strain USA300 [4]; MRSA strain USA300, partner beta-lactam Biapenem at 1/4x its MIC) | Fold reduction in Compound 155 MIC (MRSA strain USA300 [4]; MRSA strain USA300, partner beta-lactam Ceftriaxone at 1/4x its MIC) | Fold reduction in Compound 155 MIC (MRSA strain USA300 [4]; MRSA strain USA300, partner beta-lactam Cephalothin at 1/4x its MIC)
4 µg/mL: Compound 155 MIC (MRSA strain USA300 [4]; MRSA strain USA300, partner beta-lactam: None)
16: Fold reduction in Compound 155 MIC (MRSA strain USA300 [4]; MRSA strain USA300, partner beta-lactam Amoxicillin/Clav at 1/4x its MIC) | Fold reduction in Compound 155 MIC (MRSA strain USA300 [4]; MRSA strain USA300, partner beta-lactam Cefaclor at 1/4x its MIC) | Fold reduction in Compound 155 MIC (MRSA strain USA300 [4]; MRSA strain USA300, partner beta-lactam Cefamandole at 1/4x its MIC) | Fold reduction in Compound 155 MIC (MRSA strain USA300 [4]; MRSA strain USA300, partner beta-lactam Cefixime at 1/4x its MIC) | Fold reduction in Compound 155 MIC (MRSA strain USA300 [4]; MRSA strain USA300, partner beta-lactam Cefonicid at 1/4x its MIC) | Fold reduction in Compound 155 MIC (MRSA strain USA300 [4]; MRSA strain USA300, partner beta-lactam Cefoxitin at 1/4x its MIC) | Fold reduction in Compound 155 MIC (MRSA strain USA300 [4]; MRSA strain USA300, partner beta-lactam Cefprozil at 1/4x its MIC) | Fold reduction in Compound 155 MIC (MRSA strain USA300 [4]; MRSA strain USA300, partner beta-lactam Ceftizoxime at 1/4x its MIC) | Fold reduction in Compound 155 MIC (MRSA strain USA300 [4]; MRSA strain USA300, partner beta-lactam Ertapenem at 1/4x its MIC) | Fold reduction in Compound 155 MIC (MRSA strain USA300 [4]; MRSA strain USA300, partner beta-lactam Meropenem at 1/4x its MIC) | Fold reduction in Compound 155 MIC (MRSA strain USA300 [4]; MRSA strain USA300, partner beta-lactam Methicillin at 1/4x its MIC)
synergize: synergy with beta-lactam antibiotics as quantified by SIC determination (MRSA strain USA300 [4]; SIC less than or equal to 1/4 MIC means sum of the FICs ≤0.5, indicating synergy)
4: Fold reduction in Compound 155 MIC (MRSA strain USA300 [4]; MRSA strain USA300, partner beta-lactam Ampicillin at 1/4x its MIC) | Fold reduction in Compound 155 MIC (MRSA strain USA300 [4]; MRSA strain USA300, partner beta-lactam Azlocillin at 1/4x its MIC) | Fold reduction in Compound 155 MIC (MRSA strain USA300 [4]; MRSA strain USA300, partner beta-lactam Mecillinam at 1/4x its MIC)
0.125 µg/mL: Compound 155 SIC (MRSA strain USA300 [4]; MRSA strain USA300, media contains partner beta-lactam Cefazolin at 1/4x its MIC) | Compound 155 SIC (MRSA strain USA300 [4]; MRSA strain USA300, media contains partner beta-lactam Cefepime at 1/4x its MIC) | Compound 155 SIC (MRSA strain USA300 [4]; MRSA strain USA300, media contains partner beta-lactam Cefotaxime at 1/4x its MIC) | Compound 155 SIC (MRSA strain USA300 [4]; MRSA strain USA300, media contains partner beta-lactam Cefpodoxime at 1/4x its MIC) | Compound 155 SIC (MRSA strain USA300 [4]; MRSA strain USA300, media contains partner beta-lactam Doripenem at 1/4x its MIC) | Compound 155 SIC (MRSA strain USA300 [4]; MRSA strain USA300, media contains partner beta-lactam Imipenem at 1/4x its MIC) | Compound 155 SIC (MRSA strain USA300 [4]; MRSA strain USA300, media contains partner beta-lactam Moxalactam at 1/4x its MIC) | Compound 155 SIC (MRSA strain USA300 [4]; MRSA strain USA300, media contains partner beta-lactam Oxacillin at 1/4x its MIC) | Compound 155 SIC (MRSA strain USA300 [4]; MRSA strain USA300, media contains partner beta-lactam Ticarcillin at 1/4x its MIC)
synergistic: time-kill: reduction of viable cells, combination compared with either agent alone (MRSA strain USA300 [1])
≤0.0156 µg/mL: Compound 155 SIC (MRSA strain USA300 [4]; MRSA strain USA300, media contains partner beta-lactam Cefdinir at 1/4x its MIC) | Compound 155 SIC (MRSA strain USA300 [4]; MRSA strain USA300, media contains partner beta-lactam Faropenem at 1/4x its MIC)
0.5 µg/mL: Compound 155 SIC (MRSA strain USA300 [4]; MRSA strain USA300, media contains partner beta-lactam Carbenicillin at 1/4x its MIC) | Compound 155 SIC (MRSA strain USA300 [4]; MRSA strain USA300, media contains partner beta-lactam Cefmetazole at 1/4x its MIC) | Compound 155 SIC (MRSA strain USA300 [4]; MRSA strain USA300, media contains partner beta-lactam Cefotetan at 1/4x its MIC) | Compound 155 SIC (MRSA strain USA300 [4]; MRSA strain USA300, media contains partner beta-lactam Ceftazidime at 1/4x its MIC) | Compound 155 SIC (MRSA strain USA300 [4]; MRSA strain USA300, media contains partner beta-lactam Mezlocillin at 1/4x its MIC) | Compound 155 SIC (MRSA strain USA300 [4]; MRSA strain USA300, media contains partner beta-lactam Piperacillin/tazobactam at 1/4x its MIC)
1 µg/mL: Compound 155 SIC (MRSA strain USA300 [4]; MRSA strain USA300, media contains partner beta-lactam Ampicillin at 1/4x its MIC) | Compound 155 SIC (MRSA strain USA300 [4]; MRSA strain USA300, media contains partner beta-lactam Azlocillin at 1/4x its MIC) | Compound 155 SIC (MRSA strain USA300 [4]; MRSA strain USA300, media contains partner beta-lactam Mecillinam at 1/4x its MIC)
0.0625 µg/mL: Compound 155 SIC (MRSA strain USA300 [4]; MRSA strain USA300, media contains partner beta-lactam Biapenem at 1/4x its MIC) | Compound 155 SIC (MRSA strain USA300 [4]; MRSA strain USA300, media contains partner beta-lactam Ceftriaxone at 1/4x its MIC) | Compound 155 SIC (MRSA strain USA300 [4]; MRSA strain USA300, media contains partner beta-lactam Cephalothin at 1/4x its MIC)
>256: Fold reduction in Compound 155 MIC (MRSA strain USA300 [4]; MRSA strain USA300, partner beta-lactam Cefdinir at 1/4x its MIC) | Fold reduction in Compound 155 MIC (MRSA strain USA300 [4]; MRSA strain USA300, partner beta-lactam Faropenem at 1/4x its MIC)
2.8 µg/mL: MIC (μg/mL) S. aureus [2]
32: Fold reduction in Compound 155 MIC (MRSA strain USA300 [4]; MRSA strain USA300, partner beta-lactam Cefazolin at 1/4x its MIC) | Fold reduction in Compound 155 MIC (MRSA strain USA300 [4]; MRSA strain USA300, partner beta-lactam Cefepime at 1/4x its MIC) | Fold reduction in Compound 155 MIC (MRSA strain USA300 [4]; MRSA strain USA300, partner beta-lactam Cefotaxime at 1/4x its MIC) | Fold reduction in Compound 155 MIC (MRSA strain USA300 [4]; MRSA strain USA300, partner beta-lactam Cefpodoxime at 1/4x its MIC) | Fold reduction in Compound 155 MIC (MRSA strain USA300 [4]; MRSA strain USA300, partner beta-lactam Doripenem at 1/4x its MIC) | Fold reduction in Compound 155 MIC (MRSA strain USA300 [4]; MRSA strain USA300, partner beta-lactam Imipenem at 1/4x its MIC) | Fold reduction in Compound 155 MIC (MRSA strain USA300 [4]; MRSA strain USA300, partner beta-lactam Moxalactam at 1/4x its MIC) | Fold reduction in Compound 155 MIC (MRSA strain USA300 [4]; MRSA strain USA300, partner beta-lactam Oxacillin at 1/4x its MIC) | Fold reduction in Compound 155 MIC (MRSA strain USA300 [4]; MRSA strain USA300, partner beta-lactam Ticarcillin at 1/4x its MIC)
8: Fold reduction in Compound 155 MIC (MRSA strain USA300 [4]; MRSA strain USA300, partner beta-lactam Carbenicillin at 1/4x its MIC) | Fold reduction in Compound 155 MIC (MRSA strain USA300 [4]; MRSA strain USA300, partner beta-lactam Cefmetazole at 1/4x its MIC) | Fold reduction in Compound 155 MIC (MRSA strain USA300 [4]; MRSA strain USA300, partner beta-lactam Cefotetan at 1/4x its MIC) | Fold reduction in Compound 155 MIC (MRSA strain USA300 [4]; MRSA strain USA300, partner beta-lactam Ceftazidime at 1/4x its MIC) | Fold reduction in Compound 155 MIC (MRSA strain USA300 [4]; MRSA strain USA300, partner beta-lactam Mezlocillin at 1/4x its MIC) | Fold reduction in Compound 155 MIC (MRSA strain USA300 [4]; MRSA strain USA300, partner beta-lactam Piperacillin/tazobactam at 1/4x its MIC)
